Test results from PMC8470881, “Membrane Interactions of Latarcins: Antimicrobial Peptides from Spider Venom” (International Journal of Molecular Sciences, 2021).
“And” between values parts separate entries of the source, which are not always exact repeats. Equal entries are not always repeated.

How the values were obtained:
[1] = ANTS/DPX fluorescence vesicle leakage assay; conditions: vesicle leakage of ANTS/DPX in POPC/POPG (1/1) LUVs, P/L = 1:50, 100 µM lipid, 10 min, 30 °C, pH 7.5
Description: The ability of the peptides to induce leakage in large unilamellar vesicles (≈120 nm diameter) of POPC/POPG (1/1) was studied using a fluorescence assay using ANTS/DPX, as described previously.
For the leakage experiments, the buffer in which the vesicles were prepared contained the fluorophore ANTS (12.5 mM), the quencher DPX (45 mM), 50 mM NaCl, and 10 mM HEPES (pH 7.5). Liposomes were prepared by co-dissolving POPC/POPG 1/1 (mol/mol) lipids in CHCl3/MeOH (3/1 v/v), together with 10^−2 mol% Rhod-PE, by which the lipid loss during vesicle preparation (extrusion and gel filtration, see below) could be quantified. The peptide-to-lipid ratio (P/L) is given in mol/mol. The lipid mixture was dried under N2(g) and dried under vacuum for 2–4 h. The obtained thin film was then re-suspended in the buffer, which contained the fluorophore and the quencher, by vigorous vortexing, followed by 10 freeze–thaw cycles. Large unilamellar vesicles (LUV) were obtained by 41-fold extrusion (Avanti Mini Extruder; Avanti Polar Lipids, Alabaster, AL, USA) of the liposomes through a Nuclepore polycarbonate membrane (pore size 100 nm, Whatman-GE Healthcare Europe, Freiburg, Germany) at a temperature 20 °C above the lipid phase transition. […]
The leakage of entrapped ANTS was monitored by fluorescence dequenching of ANTS [18]. Fluorescence measurements were performed in a thermostated cuvette with constant stirring at 30 °C in the elution buffer used for gel filtration on a FluoroMax2 spectrofluorimeter (HORIBA Jobin Yvon, Unterhaching, Germany) by setting the ANTS excitation wavelength to 355 nm and its emission wavelength to 510 nm. Peptide stock solutions in water were prepared, and the peptide concentration was calculated from the weighed amount. […] The fluorescence signal was followed for 10 minutes, and after that time, Triton X-100 was added to completely disrupt the vesicles. The level of 0% leakage corresponded to the fluorescence of the vesicles immediately after their addition, while 100% leakage was the fluorescence value obtained after the addition of Triton X-100.
The synergy of the peptides towards vesicle leakage was investigated by pair-wise combinations of latarcins. The leakage was measured for each peptide alone at P/L = 1/100 and for peptide combinations at P/P/L = 1/1/100. The synergy factor, SF, is calculated according to:SF = L(P1 + P2)/[L(P1) + L(P2)].(1)
Here, L(P1) is the leakage of peptide 1 alone, L(P2) is the leakage of peptide 2 alone, and L(P1 + P2) is the leakage for the mixture of the peptides. […] The SF was determined separately for each batch of samples, and then the individual SF values were averaged.

[2] = Solid-state 15N-NMR (helix alignment in membrane); assay type: physicochemical; conditions: DMPC/DMPG (7/3); for NMR: orientational state of the helix: P/L = 1:100, oriented samples, solid-state 15N-NMR, 308 K
Description: While OCD provides a rough picture of the peptide alignment, the helix tilt angle can be measured rather precisely by solid-state NMR using the same type of oriented membrane sample. […] If the peptides are not helical, then the orientation cannot be determined from these ^15N-NMR spectra (which is why CD/OCD need to be performed first), but other information may be available. Oriented NMR samples were prepared at a P/L of 1/100 in DMPC/DMPG (7/3), as for CD/OCD. The ^15N-NMR spectra of all latarcins are summarized in Figure 7, along with the corresponding ^31P-NMR spectra of the phospholipid component. […] This conclusion is supported by the vesicle leakage data above.
Ltc2a, with a chemical shift of 131 ppm, on the other hand, is distinctly tilted in the membrane, as was also observed in the OCD experiments. […] Ltc3a, with a chemical shift of 93 ppm, is tilted only slightly by 10–20°. […] Given that OCD had shown distinct signs of aggregation into β-sheets, we can conclude that Ltc6a binds to the membrane and perturbs the lipid bilayer, but it is not possible to determine the molecular alignment of Ltc6a when it has most likely formed aggregates.
Macroscopically oriented NMR samples were prepared by co-dissolving appropriate amounts of peptides and lipids (in 300 μL methanol, 100 μL CHCl3, and 10–20 μL Milli-Q water) and spreading them onto 23 thin glass plates of dimensions 9 mm × 7.5 mm × 0.08 mm (Marienfeld Laboratory Glassware, Lauda-Königshofen, Germany). The peptide-to-lipid ratio (P/L) is given in mol/mol. The plates were dried in air for 1 h, followed by drying under vacuum overnight. The plates were stacked and placed into a hydration chamber with 96% relative humidity at 48 °C for 18–24 h before wrapping the stack in parafilm and plastic foil for the NMR measurements. All solid-state NMR measurements were carried out on a Bruker Avance 500 MHz spectrometer (Bruker Biospin, Karlsruhe, Germany) at 308 K, as previously reported. The oriented membrane samples were placed in the flat-coil probe such that the lipid bilayer normal was aligned parallel to the magnetic field. ^31P-NMR was used to check the quality of the lipid orientation in the samples, using a Hahn echo sequence with phase cycling. The 90° pulse length was 3.9 µs, the echo time was 30 µs, and 17 kHz ^1H SPINAL64 decoupling was used. ^1H-^15N cross-polarization experiments using a CP-MOIST pulse sequence were performed using a double-tuned probe with a low-E flat-coil resonator (3 mm × 9 mm cross-section), employing a ^1H and ^15N radiofrequency field strength of 65 kHz during the cross-polarization and 25 kHz ^1H SPINAL16 [41] decoupling during acquisition. A mixing time of 500 μs was used, and 10,000 to 30,000 scans were accumulated. The acquisition time was 10 ms, and the recycle time was 3 s. The ^15N chemical shift was referenced using the ^1H-NMR signal of water in the sample.

Row | Substance | % Leakage [1] | NMR: orientational state of the helix [2] | helix tilt angle away from the flat surface orientation ([2]; from 15N chemical shift, P/L 1/100)
1 | G E TF D K L K E K L K TFYQ K LV E K A ED L K G D L K A K LS-acid [Ltc7] | 50% and 54% | Surface | 
2 | H-GFFGKMKEYFKKFGASFKRRFANLKKRL-NH2 [Ltc5] |  | Surface | 
3 | H-GLKDKFKSMGEKLKQYIQTWKAKF-NH2 [Ltc4a] | 20% and 22% |  | 
4 | H-QAFQTFKPDWNKIRYDAMKMQTSLGQMKKRFNL-OH [Ltc6a] | 50% and 46% | Aggregated | 
5 | H-SWKSMAKKLKEYMEKLKQRA-NH2 [Ltc3a] | 20% | Slight tilt | 10–20 °
